# How the values were obtained:
# eosinophils [1] = assay: paf metabolism by intact eosinophils; type: in vitro ADME, human; conditions: binding conditions
# Procedure: Cells were then separated by vacuum filtration and phospholipids were extracted. Briefly, filters were placed in 500 μl water. […] High pressure liquid chromatography (HPLC) was performed using standard procedure with dichloromethane/methanol/water (50:50.5, by vol) and eluted with a flow rate of 1 ml/min. The radioactivity was measured in the fractions after subtraction of the background values.
# [2] = biological target: T1, paf receptors on neutrophils (PMN) (Homo sapiens, UniProt P25105); assay: [^3H]paf binding to intact human neutrophils (PMN); conditions: for [^3H]paf binding: 20° C., 30 min
# T1 construct: Neutrophils (PMN) were prepared from venous blood (40 ml) from normal donors; endogenous in cells; host or cells: intact neutrophils (PMN) from venous blood of normal donors
# Procedure: (§2) Neutrophils (PMN) were prepared from venous blood (40 ml) from normal donors, anticoagulated with citric acid dextrose (7:1, v/v) was sedimented for 30 to 45 min in gelatin 0.3% final (Plasmagel®). Twenty ml of supernatant were layered on 10 ml Ficoll Hypaque (d=1.077) and centrifuged (400×g, 20 min, 20° C.). The cell pellet containing PMN (95%) was resuspended in 500 μl Tyrode's buffer (pH=7.4). Erythrocyte lysis was performed by adding 3 volumes of distilled water for 40 sec. followed by 1 volume NaCl (3.5%, w/v). PMN were then washed twice in Tyrode's buffer (centrifugation at 370×g at 20° C. for 10 min). Cell concentration was adjusted to 5×10^7 per ml.
# (§3) Binding studies were performed using, for example, intact neutrophils (PMN) or intact human blood eosinophils. PMN (2.5×10^6) or eosinophils (2.5×10^5) were suspended in 500 μl Tyrode's buffer supplemented with 1.3 mM CaCl2, 1 mM MgCl2 and 0.25% (v/v) fatty acid-free bovine serum albumin (BSA, w/v) were incubated with [^3H]paf (0.325-6.5 nM) either for 30 min at 20° C. or for 20 hrs at 4° C. Non-specific binding was assessed with the unlabeled ligands either paf (500 nM) or the receptor antagonist WEB 2086 (1 μM or 400 nM).
# In a second set of experiments, [^3H]paf binding was performed by adding 3.25 nM [^3H]paf to PMN, simultaneously with low dose (5 to 50 nM) of paf, lyso paf, the enantiomer of paf or 2-lyso phosphatidylcholine (LPC) for 30 min at 20° C. [^3H]paf binding was also measured in the presence of the phorbol ester 4-phorbol-12-myristate-13-acetate (PMA, 1 to 16 nM) either added simultaneously with [^3H]paf or preincubated 15 min at 37° C. previously. […] After the binding procedure, cells were separated from their suspending medium by filtration in a millipore vacuum system with GF/C filters. Filters were washed with 10 ml Tyrode's buffer at 4° C. and radioactivity was assessed by scintillation. Cell-bound radioactivity on the filters after subtraction of blanks (filter-bound radioactivity in the absence of cells) was expressed in fmol [^3H]paf bound per 2.5×10^6 PMN or 2.5×10^5 eosinophils.
# PMN = assay: cytosolic free calcium (fura-2) in PMN; type: cell-based, human; conditions: 1 to 500 nM; CaCl2 1.3 mM or EGTA 2 mM
# Procedure: (§1) The concentration of cytosolic free calcium [Ca^2+]i was measured using the [Ca^2+]i indicator fura-2-acetoxymethyl ester (fura-2). […] The spectrofluorophotometer was programmed to shuttle between the two excitation wavelengths of 340 and 380 nm every 5 sec while keeping the emission wavelength of 505 nm. […] Background values were subtracted from all data. The intracellular Ca^2+ was calculated with the formula [[…] is KD of the fura-2 multiplied with the quotient of the fluorescence at 380 nm from the minimal and the maximal [Ca^2+]i fluorescence.
# acetylhydrolase = acetylhydrolase activity, kinetic constants; type: biochemical, human
# Procedure: Acetylhydrolase activity was measured in lysates of resting platelets or platelets stimulated with thrombin (0.5 IU/ml, 1 min, 37° C.), in supernatants of thrombin-activated platelets with or without acid-treated (inactivation of acetylhydrolase) plasma and in native plasma. Samples were incubated for 10 min at 37° C. in the presence of 0.1 μCi [^3H]acetyl paf and concentrations of unlabeled paf varying from 5 to 35 μM. The microenvironment modulates the acetylhydrolase indicating the origin of plasma acetylhydrolase from activated platelets.
# platelets = assay: paf-mediated platelet aggregation; type: cell-based; conditions: BSA […]; for EC50: Platelet, 0.05 h, 3 min aggregation
# Procedure: (§4) Results are expressed as mean±S.D. or S.E. and statistics were performed using the “Mann Whitney” test (n=3, n=5 or n=6 as indicated).
# [3] = biological target: T2, paf receptors on eosinophils (Homo sapiens, UniProt P25105); assay: [^3H]paf binding to intact human eosinophils; conditions: for specific [^3H]paf binding: 20° C., 30 min
# T2 construct: endogenous in cells; host or cells: intact human blood eosinophils (about 96% pure)
# Procedure: Eosinophils were also prepared under sterile conditions. Blood (400 ml) was mixed with 10% (v/v) dextran. The supernatant was carefully deposited on a metrizoate/ficoll suspension (d=1.148) after sedimentation of red blood cells and centrifuged (400×g: 40 min). Erythrocyte lysis was performed by adding 3 v. of distilled water for 40 sec, followed by 1 v. NaCl (3.5%, w/v). Cells were suspended in 500 μl pH 7.4 Tyrode's buffer, centrifuged (1900 rpm×10 min) and resuspended (5×10^6 cells/ml) in Tyrode's (0.25% BSA) without Ca^2+. The eosinophils fraction at 1×10^6 cells/ml contained 96±5% eosinophils, 3±3% neutrophils, 1±2% mononuclear cells and no free platelets (mean±s.d., n=3).
# as §3
# Eosinophils were added to Tyrode's (0.25% BSA, 1.3 mM CaCl2, 1 mM MgCl2) containing [3H]paf (0.325-6.5 nM) in the absence or presence of unlabeled paf, lyso paf, enantio-paf or lyso-phosphatidylcholine (LPC) (5, 10, 50, 500 nM) and/or the specific paf receptor antagonist WEB 2086 (400 nM). After the binding procedure, cells were separated from their suspending medium by filtration in a millipore vacuum system with GF/C filters. Filters were washed with 10 ml Tyrode's buffer at 4° C. and radioactivity was assessed by scintillation. Cell-bound radioactivity on the filters after subtraction of blanks (filter-bound radioactivity in the absence of cells) was expressed in fmol [^3H]paf bound per 2.5×10^6 PMN or 2.5×10^5 eosinophils.
# human platelets = assay: acetylhydrolase release from activated platelets; type: cell-based; conditions: Thrombin 0.5 IU/ml; for acetylhydrolase release: Paf 500 nM
# Procedure: as §4
# U 937 cells = assay: cAMP levels of U 937 cells; type: cell-based
# Procedure: U 937 cells were grown in stationary suspension culture in RPMI 1640 containing 10% fetal calf serum (FCS) and 2 mM L-glutamine at 37° C. in a humidified atmosphere of 5% CO2 and 95% air. The cells were diluted with fresh medium (1/10, v/v) twice a week. After three days in culture, U 937 cells were centrifuged (1000×G for 10 min) and incubated for 24 hrs in RPMI 1640 medium containing 10% CPSR 1 (delipidated FCS) and 2 mM L-glutamine. Subsequently the cells were incubated in the delipidated FCS medium containing cholesterol (10-60 μg/ml), as compared with solvent alone (ethanol, 0.5% v/v, final concentration) for (2, 4 or 24 hrs).
# Cyclic AMP in supernatants from cholesterol-treated and control cells, were measured by the Rianen [^125I]cAMP-RIA Kit. Briefly, cholesterol (60 μg/ml, 24 hrs) or cholesterol vehicle (ethanol) were added after 24 hrs cell incubation in delipidated FCS medium. Cells were subsequently washed three times and resuspended (5×10^6, final concentration) in Hanks Hepes (HH)-buffer, pH 7.4 with ascorbinic acid (10 mM) and cAMP-phosphodiesterase inhibitor IBMX (1 mM). Cell suspension (100 μl) was added to 400 μl of the cAMP buffer for 30 min at 20° C. […] Values are from one experiment (representative of three) expressed as pmol cAMP per 10^6 cells. Total proteins were measured by standard procedure.
# [4] = system: lyso paf receptors on neutrophils (PMN); assay: [^3H]lyso paf binding to neutrophils (PMN); parameters: species or system human; conditions: 20° C.
# Procedure: as §2
# The binding of [^3H]lyso paf (0.325-0.5 nM) was measured after 30 min incubation at 20° C. in the absence or presence of an excess of unlabeled lyso paf (500 nM), paf (500 nM) or WEB 2086 (1 μM). The effect of low dose paf (5 nM) on the binding of [^3H]lyso paf was also investigated. […] After the binding procedure, cells were separated from their suspending medium by filtration in a millipore vacuum system with GF/C filters. Filters were washed with 10 ml Tyrode's buffer at 4° C. and radioactivity was assessed by scintillation. Cell-bound radioactivity on the filters after subtraction of blanks (filter-bound radioactivity in the absence of cells) was expressed in fmol [^3H]paf bound per 2.5×10^6 PMN or 2.5×10^5 eosinophils.
# eosinophils [5] = assay: cytosolic free calcium (fura-2) in eosinophils; type: cell-based, human; conditions: 1-100 nM; Ca^2+ free buffer, EGTA 2 mM
# Procedure: as §1
# [6] = source of acetylhydrolase: (1) Platelets
# [7] = source of acetylhydrolase: (2) Thrombin-activated platelets
# [8] = source of acetylhydrolase: (3) Supernatant from (2)
# [9] = source of acetylhydrolase: (4) Native plasma
# T1 sequence (P25105 whole entry): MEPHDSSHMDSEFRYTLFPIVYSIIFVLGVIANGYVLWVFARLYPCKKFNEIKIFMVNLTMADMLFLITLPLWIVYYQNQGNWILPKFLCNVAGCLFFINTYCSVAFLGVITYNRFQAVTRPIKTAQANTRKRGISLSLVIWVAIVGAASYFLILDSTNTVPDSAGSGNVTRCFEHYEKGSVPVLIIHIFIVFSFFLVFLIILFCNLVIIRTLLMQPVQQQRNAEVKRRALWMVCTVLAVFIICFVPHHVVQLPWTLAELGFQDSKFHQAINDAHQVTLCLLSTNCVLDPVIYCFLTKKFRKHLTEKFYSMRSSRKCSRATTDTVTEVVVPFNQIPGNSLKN
# T2 sequence (P25105 whole entry): as above
structure (smiles),measurement,setting,value
"CCCCCCCCCCCCCCCCCCOC[C@H](COP(=O)([O-])OCC[N+](C)(C)C)OC(C)=O [paf, 1-octadecyl-2-acetyl-sn-glycero-3-phosphocholine]",metabolism of added paf,eosinophils [1],did not metabolize
same,Kd,[2]; 4° C.,0.44 nM
same,binding sites (high affinity) on neutrophils,[2]; 4° C.,3612 binding sites
same,[^3H]paf binding,"[2]; Add. 5 nM, WEB 2086 1 μM",376 ± 21 fmol [^3H]paf bound per 2.5×10^6 PMN
same,[^3H]paf binding,"[2]; paf 5 nM, preincubation 0 min at 37° C.",414 fmol [^3H]paf bound per 2.5×10^6 PMN
same,[^3H]paf binding,"[2]; paf 5 nM, preincubation 15 min at 37° C.",331 fmol [^3H]paf bound per 2.5×10^6 PMN
same,effect of excess unlabeled ligand on [^3H]paf binding,"[2]; paf 500 nM, WEB 2086 1 μM",inhibited
same,cytoplasmic Ca^2+ flux in response to agonist,PMN,concentration-dependent entry of Ca^2+
same,Km,acetylhydrolase; [6],8.3 ± 1.5 µM
same,Vmax,acetylhydrolase; [6],0.3 nmol/min/mg prot.
same,Km,acetylhydrolase; [7],10.6 ± 1.5 µM
same,Vmax,acetylhydrolase; [7],0.3 nmol/min/mg prot.
same,Km,acetylhydrolase; [8],7.9 ± 1.5 µM
same,Vmax,acetylhydrolase; [8],1.4 nmol/min/mg prot.
same,Km,acetylhydrolase; [9],5.3 ± 0.5 µM
same,Vmax,acetylhydrolase; [9],1.4 nmol/min/mg prot.
same,concentration for maximal aggregation,platelets; 20° C.,2.6 ± 0.5 nM
same,concentration for maximal aggregation,platelets; 37° C.,5.0 ± 0.5 nM
same,EC50,platelets; 20° C.,0.4 ± 0.1 nM
same,EC50,platelets; 37° C.,0.9 ± 0.2 nM
same,binding sites per eosinophil,[3],8.6×10^4 sites per eosinophil
same,"specific [^3H]paf binding, maximal plateau values","[3]; 20 hrs at 4° C., assessed with unlabeled paf 500 nM or WEB 2086 400 nM",14.0±9.0 fmol per 2.5×10^5 cells
same,Kd,"[3]; 20 hrs at 4° C., read-out: binding affinity (Kd) on eosinophils",5.5 nM
same,specific [^3H]paf binding,"[3]; addition 5 nM, WEB 2086 400 nM",3.8 ± 5.0 fmol per 2.5×10^5 cells
same,specific [^3H]paf binding,"[3]; addition 10 nM, WEB 2086 400 nM",4.3 ± 2.9 fmol per 2.5×10^5 cells
same,specific [^3H]paf binding,"[3]; addition 50 nM, WEB 2086 400 nM",7.2 ± 5.4 fmol per 2.5×10^5 cells
same,specific [^3H]paf binding,[3]; addition 500 nM,12.5 ± 6.9 fmol per 2.5×10^5 cells
same,released of the total acetylhydrolase,"human platelets; paf 500 nM, mean±S.E., n=3",10.3±1.5%
same,acetylhydrolase release,human platelets; stimulation 0 sec,1.0 ± 1.0 percentage of the total content of acetylhydrolase
same,acetylhydrolase release,human platelets; stimulation 15 sec,8.2 ± 3.2 percentage of the total content of acetylhydrolase
same,acetylhydrolase release,human platelets; stimulation 30 sec,7.8 ± 2.6 percentage of the total content of acetylhydrolase
same,acetylhydrolase release,human platelets; stimulation 60 sec,9.5 ± 4.0 percentage of the total content of acetylhydrolase
same,acetylhydrolase release,human platelets; stimulation 120 sec,10.0 ± 1.4 percentage of the total content of acetylhydrolase
same,acetylhydrolase release,human platelets; stimulation 180 sec,12.6 ± 3.8 percentage of the total content of acetylhydrolase
same,acetylhydrolase release,human platelets; stimulation 300 sec,10.3 ± 1.5 percentage of the total content of acetylhydrolase
same,cAMP in response to paf,U 937 cells,dose dependent fall in cAMP
same,effect of unlabeled ligand on [^3H]lyso paf binding,"[4]; excess unlabeled paf or lyso paf 500 nM, WEB 2086 1 μM",increased
same,binding of […] [^3H]lyso paf,"[4]; paf 5 nM, increased from 197.0±4.5",255.0±10.5 fmol per 2.5×10^6 PMN
same,[Ca^2+]i rise in response to agonist,eosinophils [5],concentration-dependent elevation of [Ca^2+]i

# Source: US20020127287A1, “Treatment of lyso paf-mediated disorders with lyso paf or paf antagonists and procedure for determining their efficacy” (priority 1990, published 2002)
